The source of these data is the NIST ThermoML archive (doi:10.1016/j.jct.2006.09.006).

Numbers after ± are expanded uncertainties.

Data set [1] is described as follows: xn = mol fraction of the nth substance listed. As to conditions: 298.15 K, 101.3 kPa, Liquid.
For data set [2] the following is noted: 298.15 K; 101.33 kPa; Liquid.

In the case of `CC(C)OC(C)C` [diisopropyl ether] + CCO, the mass density (usually mass per unit of volume) is 774.5 ± 0.5 kg/m3 in data set [1] (x1 = 0.1072); 766.1 ± 0.5 kg/m3 in data set [1] (x1 = 0.2007); 757.6 ± 0.5 kg/m3 in data set [1] (x1 = 0.3086); 751 ± 0.5 kg/m3 in data set [1] (x1 = 0.403); 746 ± 0.6 kg/m3 in data set [1] (x1 = 0.4811); 738.3 ± 0.6 kg/m3 in data set [1] (x1 = 0.6142). Besides, the mass density in data set [1] (x1 = 0.6993) is recorded as 733.8 ± 0.6 kg/m3; in data set [1] (x1 = 0.7432), 731.7 ± 0.6 kg/m3; in data set [1] (x1 = 0.7863), 729.6 ± 0.6 kg/m3; in data set [1] (x1 = 0.8965), 724.4 ± 0.6 kg/m3; in data set [1] (x1 = 0.9129), 723.6 ± 0.6 kg/m3.

Regarding `CCO` [ethanol], in data set [2], the mass density is listed as 785.6 ± 0.24 kg/m3.

With `FC(F)(F)c1ccccc1` [(trifluoromethyl)benzene], the mass density in data set [2] was found to be 1182.18 ± 0.48 kg/m3.

On to `OCC(F)(F)F` [2,2,2-trifluoroethanol], for which the mass density in data set [2] was 1382.4 ± 1.5 kg/m3.

Regarding `CC(C)OC(C)C` [diisopropyl ether], the mass density in data set [2] is listed as 719.17 ± 0.96 kg/m3.

With `OCC(F)(F)F` [2,2,2-trifluoroethanol] + CC(C)OC(C)C, the mass density in data set [1] (x2 = 0.0511) worked out at 1320 ± 1 kg/m3; in data set [1] (x2 = 0.1069) it was 1258.5 ± 0.9 kg/m3; in data set [1] (x2 = 0.1922), 1175.7 ± 0.7 kg/m3; in data set [1] (x2 = 0.2483), 1127.3 ± 0.6 kg/m3; in data set [1] (x2 = 0.2968), 1088.9 ± 0.5 kg/m3; in data set [1] (x2 = 0.4021), 1013.8 ± 0.4 kg/m3. The mass density in data set [1] (x2 = 0.4927) is 957.1 ± 0.5 kg/m3; in data set [1] (x2 = 0.6059) it was 894 ± 0.5 kg/m3; in data set [1] (x2 = 0.6997), 846.9 ± 0.5 kg/m3; in data set [1] (x2 = 0.8024) it was 799.8 ± 0.6 kg/m3; in data set [1] (x2 = 0.9113), 754.2 ± 0.6 kg/m3.

As to `FC(F)(F)c1ccccc1` [(trifluoromethyl)benzene] + CCO, the mass density in data set [1] (x1 = 0.1051) turned out to be 864 ± 0.4 kg/m3; in data set [1] (x1 = 0.1999) it was 921.7 ± 0.3 kg/m3; in data set [1] (x1 = 0.2454) it was 945.8 ± 0.3 kg/m3; in data set [1] (x1 = 0.3059) it was 975.2 ± 0.2 kg/m3; in data set [1] (x1 = 0.4057), 1017.5 ± 0.2 kg/m3; in data set [1] (x1 = 0.5022) it was 1052.8 ± 0.3 kg/m3. In addition, the mass density in data set [1] (x1 = 0.5855) amounted to 1079.7 ± 0.3 kg/m3; in data set [1] (x1 = 0.7052), 1113.7 ± 0.4 kg/m3; in data set [1] (x1 = 0.7886), 1134.9 ± 0.4 kg/m3; in data set [1] (x1 = 0.9032) it was 1161.5 ± 0.4 kg/m3.
